Data reported in US20110207829A1, “CONTROL OF TERMITES, FIRE ANTS AND CARPENTER ANTS” (Bedoukian Research, Inc, priority 2008, published 2011).

Experiments:
[1] = tested on: Formosan subterranean termites; test: Vapor Toxicity Under Subterranean Conditions (soil and wood); type: in vivo, Coptotermes formosanus; details: for termites killed (vapor toxicity under subterranean conditions): 25 mg
Experimental: (§1) Formosan subterranean termites were collected from bucket traps placed in City Park,
(§2) New Orleans, La. Altogether five colonies designated 1314, 1559, 1732, 1743 and 1756 were used in the tests. After collection, the termites (primarily workers and soldiers) were transferred to plastic boxes with moist spruce slats. The boxes were stored in an incubator maintained at 28° C., 65% RH, and constant darkness. Termites were used within one month of their collection.
Vapor Toxicity Under Subterranean Conditions. This test was also conducted in the
Qorpak™ bottles. A 35 by 40 by 7 mm piece of moist spruce was placed at the bottom of the bottle and covered with 40 g fine-sifted black soil. One hundred workers were released into each bottle and allowed to tunnel under the soil and into the wood. After 3 days, a test chemical was applied to a filter paper and suspended from the cap-liner. The chemicals were tested at a rate of 25 mg. […] The test was conducted with termites from 3 colonies and replicated 3 times.

[2] = tested on: Formosan subterranean termites; test: Assay for Contact Toxicity (treated filter paper in Petri dishes); type: in vivo, Coptotermes formosanus; details: 1 day; rate of 0.5 mg/liter
carpenter ants = test: Carpenter ant test in sealed jars; type: in vivo; details: within 24 hours; one drop (approximately 25 to 30 mg) on filter paper in sealed jar
Experimental: One drop (approximately 25 to 30 mg) of test compound (l-linaloo , l-carvone, and Styralyl Alcohol,) was applied to a filter paper within sealed jars (16 oz glass jar, 3½ inch diameter, 3⅞ inch high with plastic lids) containing ten carpenter ants per replicate with there being five replicates. Five negative controls with no test compounds were also run. The l-linalool, l-carvone, and styralyl alcohol each provided 100% mortality to the carpenter ants within 24 hours while the control produced 6% mortality over the same 24 hour period.

[3] = tested on: Formosan subterranean termites; test: Assay for Vapor Toxicity (1 liter bottles); type: in vivo, Coptotermes formosanus
Experimental: as §1, §2
Assay for Vapor Toxicity. This test was conducted in 960 ml (approximately 1 liter) wide-mouth clear Qorpak™ (All-Pak, Inc.) bottles with PTFE lined caps. A 60 mm diameter glass Petri dish with a moist filter paper and 50 termite workers was placed at the bottom of each bottle. The test chemical was applied to a 1 cm diameter filter paper and suspended with an insect pin from the cap-liner. Each chemical was initially tested at 1 mg then at 0.1 and 0.5 mg. Since 0.1 and 0.5 mg doses caused very low and 100% mortality respectively, the final test was carried out at 0.25 mg. Each chemical was tested with different termite colonies and replicated three times. The bottles were placed in the incubator. Mortality was recorded after 1, 2 and 3 days by quickly taking the glass Petri dish with the termites out of the bottle (with a pair of long forceps) and replacing it after removing the dead workers.

Compound	effectiveness against termites in soil and wood [1]	mortality to carpenter ants (carpenter ants) [%]	termites killed (vapor toxicity under subterranean conditions) ([1]; 2 days) [%]	further results
C=C(C)C1CC=C(C)C(O)C1 (mixture of isomers) [carveol, reference compound]	totally ineffective	–	–	–
CC(O)c1ccccc1 (stereo not drawn) [Styralyl Alcohol, alpha-methyl benzyl alcohol]	–	100	–	termites killed (contact toxicity) [2]: 98%; termites killed (vapor toxicity under subterranean conditions) ([1]; time not given): 11%; termites killed (vapor toxicity) ([3]; 2 days, 0.25 mg/liter volume): 100%
CC(C)=CCCC(C)CC=O (stereo not drawn) [citronellal, reference compound]	totally ineffective	–	–	–
CC(C)=CCC/C(C)=C/CO [geraniol, reference compound]	totally ineffective	–	–	–
C=C[C@](C)(O)CCC=C(C)C [l-linalool]	–	100	69	termites killed (vapor toxicity) ([3]; 1 day, 0.5 mg): 100%; termites killed (vapor toxicity) ([3]; 3 days, 0.25 mg): 70%
Cc1ccc(C(C)C)cc1 [p-cymene, reference compound]	totally ineffective	–	–	–
CCC(C)(O)CCCC(C)C (stereo not drawn) [tetrahydrolinalool]	–	–	53	–
l-carvone	–	100	57	termites killed (vapor toxicity under subterranean conditions) ([1]; one day): 37%; termites killed (vapor toxicity) ([3]; 1 day, 0.5 mg): 100%; termites killed (vapor toxicity) ([3]; 3 days, 0.25 mg): 95%
